Reference: patent US20140323506A1, “COMBINATION” (GlaxoSmithKline Intellectual Property Development Limited, priority 2010, published 2014)

Columns and labels:
Assay type in all cases: in vivo, CD-1 nude mice
[1] = Body weight of nude mice bearing A375P F11s xenografts during treatment
Procedure: (§1) Female CD-1 nude mice of 6-8 weeks in age were used in these studies; all mice were obtained from Charles River Laboratories (Wilmington, Del.). Animals were housed in pathogen free conditions and handled with aseptic technique.
(§2) Mice with similar sized tumors (100-300 mm^3) were identified. The length and width of the tumors were measured by handheld calipers and body weights of the mice were measured using a bench top weighing scale. Tumor volumes were calculated based on the following formula: tumor volume=(Length×Width^2)/2. Mice were block randomized into the required number of dosing groups (n=8 mice/group). The randomization process ensured that the average tumor volume for each dosing group was approximately equal at the beginning of the study and mice with differing tumor volumes were evenly distributed. Mice were placed in groups of eight accordingly and dosed with either vehicle or compound for 36 days either once or twice daily, as summarised in the table below. Mice were weighed and tumors measured twice weekly for the duration of the study using Studylog animal study management software (Studylog Systems, Inc., South San Francisco, Calif., USA).

[2] = system: A375P F11s tumor xenografts; assay: A375P F11s tumor xenograft efficacy in nude mice
Procedure: as §1
The A375P F11s cell line, encoding a mutation for BRAF^V600E, was subcloned from the A375P human melanoma cell line (obtained from ATCC, Cat # CRL-1619).
The A375P F11s cell lines were grown in RPMI growth medium supplemented with 10% fetal bovine serum (FBS), 1% sodium pyruvate and 1% penicillin-streptomycin in a humidified 37° C. chamber with 5% CO2. Cells were expanded to obtain the large numbers of cells required for each injection; cells were grown in log phase, without reaching confluency and passaged regularly.
A375P F11s cells were harvested from culture flasks by exposure to 0.25% trypsin/EDTA for 5 min at 37° C. Detached cells were collected, centrifuged (1500 rpm, 5 min, 4° C.) and rinsed to remove the trypsin solution. Cells were re-suspended in PBS without magnesium or calcium and counted. Cells were spun as described previously to remove PBS and a single cell suspension was created in 50% Matrigel: 50% PBS (v:v) so that a 100 μL subcutaneous injection would deliver 1.75 million cells per mouse.
Compounds were administered in vehicles as described below.
as §2
Tumor volumes were calculated based on the following formula: tumor volume=(Length×Width^2)/2. Tumor growth curves were created from the mean±standard error of the mean, with n=8 animals per group. The percentage of tumor growth inhibition was calculated on the final day of dosing using the following formula: 1—(tumor volume in drug-treated population/tumor volume in vehicle-treated control population).

[3] = system: A375P F11s tumor xenografts; assay: A375P F11s tumor xenograft efficacy in nude mice; remark: listed apart in the source
[4] = Group 3: Compound B 0.1 mg/kg PO QD, study day 0
[5] = Group 3: Compound B 0.1 mg/kg PO QD, study day 3
[6] = Group 3: Compound B 0.1 mg/kg PO QD, study day 7
[7] = Group 3: Compound B 0.1 mg/kg PO QD, study day 9
[8] = Group 3: Compound B 0.1 mg/kg PO QD, study day 15
[9] = Group 3: Compound B 0.1 mg/kg PO QD, study day 18
[10] = Group 3: Compound B 0.1 mg/kg PO QD, study day 22
[11] = Group 3: Compound B 0.1 mg/kg PO QD, study day 25
[12] = Group 3: Compound B 0.1 mg/kg PO QD, study day 28
[13] = Group 6: Compound B 0.3 mg/kg PO QD, study day 0
[14] = Group 6: Compound B 0.3 mg/kg PO QD, study day 3
[15] = Group 6: Compound B 0.3 mg/kg PO QD, study day 7
[16] = Group 6: Compound B 0.3 mg/kg PO QD, study day 9
[17] = Group 6: Compound B 0.3 mg/kg PO QD, study day 15
[18] = Group 6: Compound B 0.3 mg/kg PO QD, study day 18
[19] = Group 6: Compound B 0.3 mg/kg PO QD, study day 22
[20] = Group 6: Compound B 0.3 mg/kg PO QD, study day 25
[21] = Group 6: Compound B 0.3 mg/kg PO QD, study day 28
[22] = Group 6: Compound B 0.3 mg/kg PO QD, study day 31
[23] = Group 6: Compound B 0.3 mg/kg PO QD, study day 35
[24] = Group 6: Compound B 0.3 mg/kg PO QD, study day 37

For `Cc1ccc(Nc2nccc(N(C)c3ccc4c(C)n(C)nc4c3)n2)cc1S(N)(=O)=O` [Compound A, 5-[[4-[(2,3-dimethyl-2H-indazol-6-yl)methylamino]-2-pyrimidinyl]amino]-2-methylbenzenesulfonamide, reference compound], the Mean body weight ([1]; Group 2: Compound A 100 mg/kg PO BID, study day 0) was 24.98 g, the Mean body weight ([1]; Group 2: Compound A 100 mg/kg PO BID, study day 3) was 25.13 g and the Mean body weight ([1]; Group 2: Compound A 100 mg/kg PO BID, study day 7) was 25.63 g. For the same molecule, the Mean body weight ([1]; Group 2: Compound A 100 mg/kg PO BID, study day 9) was 25.29 g, the Mean body weight ([1]; Group 2: Compound A 100 mg/kg PO BID, study day 15) was 24.83 g and the Mean body weight ([1]; Group 2: Compound A 100 mg/kg PO BID, study day 18) was 25.35 g. It also gave a Mean body weight ([1]; Group 2: Compound A 100 mg/kg PO BID, study day 22) of 24.71 g, a Mean body weight ([1]; Group 2: Compound A 100 mg/kg PO BID, study day 25) of 24.79 g and a Mean body weight ([1]; Group 2: Compound A 100 mg/kg PO BID, study day 28) of 24.91 g. For the same molecule, the Mean body weight ([1]; Group 2: Compound A 100 mg/kg PO BID, study day 31) was 25.33 g, the Mean body weight ([1]; Group 2: Compound A 100 mg/kg PO BID, study day 35) was 24.95 g and the Mean body weight ([1]; Group 2: Compound A 100 mg/kg PO BID, study day 37) was 25.00 g.

In the case of `CC(=O)Nc1cccc(-n2c(=O)n(C3CC3)c(=O)c3c(Nc4ccc(I)cc4F)n(C)c(=O)c(C)c32)c1` [Compound B, N-{3-[3-cyclopropyl-5-(2-fluoro-4-iodo-phenylamino)-6,8-dimethy-2,4,7-trioxo-3,4,6,7-tetrahydro-2H-pyrido[4,3-d]pyrimidin-1-yl]phenyl}acetamide], the “smaller tumors compared to vehicle control” value ([2]; Compound B 0.3 mg/kg QD) is reported as 70.4%, the “tumor volume course under extended treatment” value ([2]; Compound B alone 0.3 mg/kg, treatment continued until day 37) is reported as “tumor volume started to increase even under continued drug treatment” and the Mean tumor volume [2, 4] is reported as 199.3 mm^3. For the same molecule, the “Percent inhibition of tumor volume compared to vehicle treated mice” value (from here on “Percent inhibition of tumor volume”) [2, 4] was −15.70%, the Mean tumor volume [2, 5] was 260.5 mm^3 and the Mean tumor volume [2, 6] was 300.8 mm^3. The “Percent inhibition of tumor volume” value [2, 6] was 3.1%, the Mean tumor volume [2, 7] was 335.1 mm^3 and the “Percent inhibition of tumor volume” value [2, 7] was 14.2%. For the same molecule, the Mean tumor volume [2, 8] was 459.3 mm^3, the “Percent inhibition of tumor volume” value [2, 8] was 28.2% and the Mean tumor volume [2, 9] was 616.2 mm^3. For the same molecule, the “Percent inhibition of tumor volume” value [2, 9] was 15.3%, the Mean tumor volume [2, 10] was 916.9 mm^3 and the Mean tumor volume [2, 11] was 1,100.3 mm^3. The “Percent inhibition of tumor volume” value [2, 11] was −1.0%, the Mean tumor volume [2, 12] was 1,338.4 mm^3 and the “Percent inhibition of tumor volume” value [2, 12] was −6.8%. The Mean tumor volume [2, 13] was 198.8 mm^3, the Mean tumor volume [2, 14] was 205.9 mm^3 and the “Percent inhibition of tumor volume” value [2, 14] was 17.7%. The Mean tumor volume [2, 15] was 141.2 mm^3, the “Percent inhibition of tumor volume” value [2, 15] was 54.5% and the Mean tumor volume [2, 16] was 124.4 mm^3. For the same molecule, the Mean tumor volume [2, 17] was 115.1 mm^3, the Mean tumor volume [2, 18] was 141.4 mm^3 and the “Percent inhibition of tumor volume” value [2, 18] was 80.5%. For the same molecule, the Mean tumor volume [2, 19] was 217.3 mm^3, the Mean tumor volume [2, 20] was 300.3 mm^3 and the “Percent inhibition of tumor volume” value [2, 20] was 72.4%. The Mean tumor volume [2, 21] was 370.6 mm^3, the “Percent inhibition of tumor volume” value [2, 21] was 70.4% and the Mean tumor volume [2, 22] was 450.5 mm^3. For the same molecule, the Mean tumor volume [2, 23] was 529.1 mm^3, the Mean tumor volume [2, 24] was 604.4 mm^3 and the Mean body weight [1, 4] was 26.30 g. It also gave a Mean body weight [1, 5] of 26.00 g, a Mean body weight [1, 6] of 26.24 g and a Mean body weight [1, 7] of 26.23 g. It also gave a Mean body weight [1, 8] of 26.09 g, a Mean body weight [1, 9] of 27.09 g and a Mean body weight [1, 10] of 26.73 g. For the same molecule, the Mean body weight [1, 11] was 26.80 g, the Mean body weight [1, 12] was 26.93 g and the Mean body weight [1, 13] was 24.59 g. It also gave a Mean body weight [1, 14] of 24.10 g, a Mean body weight [1, 15] of 23.89 g and a Mean body weight [1, 16] of 23.93 g. It also gave a Mean body weight [1, 17] of 23.94 g, a Mean body weight [1, 18] of 24.41 g and a Mean body weight [1, 19] of 23.83 g. It also gave a Mean body weight [1, 20] of 23.95 g, a Mean body weight [1, 21] of 24.18 g and a Mean body weight [1, 22] of 24.49 g. The Mean body weight [1, 23] was 24.54 g, the Mean body weight [1, 24] was 24.64 g and the “Percent inhibition of tumor volume” value [3, 5] was −4.1%. The “Percent inhibition of tumor volume” value [3, 10] was 2.1%, the “Percent inhibition of tumor volume” value [3, 13] was −15.41% and the “Percent inhibition of tumor volume” value [3, 16] was 68.1%. For the same molecule, the “Percent inhibition of tumor volume” value [3, 17] was 82.0% and the “Percent inhibition of tumor volume” value [3, 19] was 76.8%.
